Measured values published in patent publication US6541500B1, “Fungicide mixture” (BASF Aktiengesellschaft, priority 1998, dated 2003).

Test system: mildew of wheat (Erysiphe graminis forma specialis tritici)
Experiment: Action against mildew of wheat (wheat seedlings cv. Kanzler, protective spray)
Assay type: in vivo
Conditions: single active ingredient, wheat leaves, 7 days after inoculation
Procedure: The active compounds, separately or together, are formulated as a 10% strength emulsion in a mixture of 70% by weight of cyclohexanone, 20% by weight of Nekanil® LN (Lutensol® AP6, wetting agent having emulsifying and dispersing action based on ethoxylated alkylphenols) and 10% by weight of Emulphor® EL (Emulan® EL, emulsifier based on ethoxylated fatty alcohols) and diluted with water to the desired concentration.
Evaluation is carried out by determining the infected leaf areas in percent. These percentages are converted into efficacies. The expected efficacies of the mixtures of the active compounds are determined using Colby's formula [R. S. Colby, Weeds 15, 20-22 (1967)] and compared with the observed efficacies.
At an efficacy of 0, the infection level of the treated plants corresponds to that of the untreated control plants; at an efficacy of 100, the treated plants are not infected.
Leaves of wheat seedlings of the cultivar “Kanzler”, grown in pots, were sprayed to run-off point with an aqueous formulation of active ingredient which had been prepared using a stock solution comprising 10% of active ingredient, 63% of cyclohexanone and 27% of emulsifier, and 24 h after the spraycoating had dried on the leaves were dusted with spores of mildew of wheat (Erysiphe graminis forma specialis tritici). The test plants were subsequently placed in climatized chambers at 20-24° C. and 60-90% relative atmospheric humidity for 7 days. The extent of the development of the disease on the leaves was then evaluated visually.
The visually determined values for the percentage of diseased leaf area were converted into efficacies in % of the untreated control. An efficacy of 0 means the same disease level as in the untreated control, an efficacy of 100 means a disease level of 0%. The expected efficacies for the active ingredient combinations were determined using Colby's formula (Colby, S. R. “Calculating synergistic and antagonistic responses of herbicide combinations”, Weeds, 15, pp. 20-22, 1967) and compared with the observed efficacies. […]

Fc1ccc(Oc2ccnc3cc(Cl)cc(Cl)c23)cc1 [I.78, quinoxyfen]
Efficacy in % of the untreated control (conc. 0.06 ppm): 0% | Efficacy in % of the untreated control (conc. 0.25 ppm): 0% | Efficacy in % of the untreated control (conc. 1 ppm): 33%
